Results published in US12552796B2, “EED inhibitor, and preparation method therefor and use thereof” (SHANGHAITECH UNIVERSITY, priority 2019, dated 2026).
pIC50: −log10 of the molar value. Read-outs that look alike come from different tables or passages of the source. Values belong to the compound of their own block, whether it stands above or below them.

Key:
WSU-DLCL2 cells = assay: Cell proliferation assay, WSU-DLCL2; type: cell-based; settings: Homo sapiens
Procedure: Human B-cell non-Hodgkin's lymphoma cells WSU-DLCL2, Karpas422 and Pfeiffer were cultured in cell culture flasks in a sterile incubator with 95% relative humidity and 5% CO2 at 37° C. The medium was RPMI-1640 (Gibco, product No. 31800022) containing 15% fetal bovine serum (FBS, Gibco, product No. 10099141) and 0.1% penicillin/streptomycin solution (P/S). In order to assay the effects of compounds on cell proliferation, cells in exponential growth phase were seeded into a 12-well plate (Nunc, product No. 150628) with 1 mL of medium per well, wherein WSU-DLCL2 and Karpas422 were seeded at a density of 1×10^5 cells/well, and Pfeiffer was seeded at a density of 2×10^5 cells/well. At the same time, different concentrations of compounds were added to the wells that had seeded with cells (6 concentrations were set for each compound at 3-fold serial dilution), and the final concentration of DMSO was 0.1%. After that, the number of viable cells was determined by Vi-CELL (Beckman Coulter) for WSU-DLCL2 and Pfeiffer every 3 days, and for Karpas422 on days 4, 7, and 11, respectively. The cells counted each time were seeded into a new 12-well plate at the same density, and supplemented with fresh medium to 1 mL. Different concentrations of compounds were added at the same time. WSU-DLCL2 and Pfeiffer were cultured to the 9th day, and Karpas422 was cultured to the 14th day. Cell data were collected uniformly, and analyzed with GraphPad prisim5. Dose curves were fitted, and IC50 values of the assay compounds were obtained.

[1] = system: cellular H3K27 methylation; assay: Cellular H3K27 methylation assay (Western blot of H3K27me3 in HeLa cells); type: cell-based; settings: Homo sapiens, 72 h, read-out: PD IC50
[2] = WSUDLCL2, WSU-DLCL2 cells, cultured to the 9th day, read-out: Anti-proliferation IC50
[3] = HeLa cells, 3 days, H3K27me3 level by Western blot

SMILES: Fc1ccc2c(c1CNc1ncc(OC3CCC3)c3nncn13)CCO2 [HJM-017]
pIC50 (WSU-DLCL2 cells; [2]): 6.95
pIC50 [1, 3]: 7.58

SMILES: CCOCCc1cnc(NCc2c(F)ccc3c2CCO3)n2cnnc12 [HJM-010]
pIC50 (WSU-DLCL2 cells; [2]): 7.11
pIC50 [1, 3]: 7.35

SMILES: CC(C)Oc1cnc(NCc2c(F)ccc3c2CCO3)n2cnnc12 [HJM-015]
pIC50 (WSU-DLCL2 cells; [2]): 6.94
pIC50 [1, 3]: 7.60

SMILES: O=C(Nc1cnc(NCc2c(F)ccc3c2CCO3)n2cnnc12)c1ccccc1 [HJM-042]
pIC50 (WSU-DLCL2 cells; [2]): 7.09
pIC50 [1, 3]: 7.22

SMILES: Fc1ccc2c(c1CNc1ncc(C3CCCO3)c3nncn13)CCO2 (stereo not shown) [HJM-003]
pIC50 (WSU-DLCL2 cells; [2]): 6.88
pIC50 [1, 3]: 7.27

SMILES: O=C(CC1CC1)Nc1cnc(NCc2c(F)ccc3c2CCO3)n2cnnc12 [HJM-031]
pIC50 (WSU-DLCL2 cells; [2]): 7.09
pIC50 [1, 3]: 7.40

SMILES: CN(C)C(=O)c1cnc(NCc2c(F)ccc3c2CCO3)n2cnnc12 [HJM-025]
pIC50 (WSU-DLCL2 cells; WSUDLCL2, read-out: Anti-proliferation IC50): 7.58
pIC50 ([1]; HeLa): 7.36

SMILES: Fc1ccc2c(c1CNc1ncc(OCC3CCO3)c3nncn13)CCO2 (stereo not shown) [HJM-103]
pIC50 (WSU-DLCL2 cells; [2]): 6.83
pIC50 [1, 3]: 7.03

SMILES: COCC(=O)Nc1cnc(NCc2c(F)ccc3c2CCO3)n2cnnc12 [HJM-083]
pIC50 (WSU-DLCL2 cells; [2]): 7.55
pIC50 [1, 3]: 7.55

SMILES: N#CCOc1cnc(NCc2c(F)ccc3c2CCO3)n2cnnc12 [HJM-145]
pIC50 (WSU-DLCL2 cells; [2]): 7.33
pIC50 [1, 3]: 7.48

SMILES: CC(F)C(=O)Nc1cnc(NCc2c(F)ccc3c2CCO3)n2cnnc12 (stereo not shown) [HJM-072]
pIC50 (WSU-DLCL2 cells; [2]): 6.92
pIC50 [1, 3]: 7.52

SMILES: Fc1ccc2c(c1CNc1ncc(OCC3CC3)c3nncn13)CCO2 [HJM-019]
pIC50 (WSU-DLCL2 cells; [2]): 7.14
pIC50 [1, 3]: 7.53

SMILES: Fc1ccc2c(c1CNc1ncc(/C=C/CN3CCCCC3)c3nncn13)CCO2 [HJM-006]
pIC50 [1, 3]: 7.31

SMILES: COCCCc1cnc(NCc2c(F)ccc3c2CCO3)n2cnnc12 [HJM-011]
pIC50 (WSU-DLCL2 cells; [2]): 7.06
pIC50 [1, 3]: 7.47

SMILES: O=C1CCCCN1c1cnc(NCc2c(F)ccc3c2CCO3)n2cnnc12 [HJM-068]
pIC50 [1, 3]: 6.86

SMILES: CCCN(C(=O)C1CC1)c1cnc(NCc2c(F)ccc3c2CCO3)n2cnnc12 [HJM-080]
pIC50 [1, 3]: 7.46

SMILES: O=C(N1CCC(c2cnc(NCc3c(F)ccc4c3CCO4)n3cnnc23)CC1)C(F)(F)F [HJM-056]
pIC50 [1, 3]: 7.89

SMILES: O=C(Nc1cnc(NCc2c(F)ccc3c2CCO3)n2cnnc12)c1cnco1 [HJM-094]
pIC50 [1, 3]: 6.65

SMILES: [2H]C([2H])(Nc1ncc(N(C)C(=O)C2CC2)c2nncn12)c1c(F)ccc2c1CCO2 [HJM-077]
pIC50 [1, 3]: 7.83

SMILES: Fc1ccc2c(c1CNc1ncc(OCCOc3ccccc3)c3nncn13)CCO2 [HJM-126]
pIC50 [1, 3]: 7.04

SMILES: O=C(c1cnc(NCc2c(F)ccc3c2CCO3)n2cnnc12)N1CCCCC1 [HJM-028]
pIC50 [1, 3]: 7.02

SMILES: CCN(CC)C(=O)c1cnc(NCc2c(F)ccc3c2CCO3)n2cnnc12 [HJM-026]
pIC50 [1, 3]: 7.12

SMILES: CC(=O)Nc1cnc(NCc2c(F)ccc3c2CCO3)n2cnnc12 [HJM-069]
pIC50 [1, 3]: 6.41

SMILES: CN(C(=O)CC1CC1)c1cnc(NCc2c(F)ccc3c2CCO3)n2cnnc12 [HJM-073]
pIC50 (WSU-DLCL2 cells; [2]): 7.53
pIC50 [1, 3]: 7.41

SMILES: Fc1ccc2c(c1CNc1ncc(OCC3CCOCC3)c3nncn13)CCO2 [HJM-020]
pIC50 (WSU-DLCL2 cells; [2]): 7.31
pIC50 [1, 3]: 7.40

SMILES: O=C1CCN(c2cnc(NCc3c(F)ccc4c3CCO4)n3cnnc23)CC1 [HJM-064]
pIC50 [1, 3]: 6.74

SMILES: Fc1ccc2c(c1CNc1ncc(OCc3ccccc3)c3nncn13)CCO2 [HJM-139]
pIC50 ([1]; HeLa): 6.92

SMILES: COCCN(C)CC(=O)Nc1cnc(NCc2c(F)ccc3c2CCO3)n2cnnc12 [HJM-085]
pIC50 [1, 3]: 7.20

SMILES: CC1COCCN1c1cnc(NCc2c(F)ccc3c2CCO3)n2cnnc12 (stereo not shown) [HJM-061]
pIC50 [1, 3]: 6.96

SMILES: CNC(=O)COc1cnc(NCc2c(F)ccc3c2CCO3)n2cnnc12 [HJM-148]
pIC50 [1, 3]: 5.96

More lines, in order of rising pIC50 [1, 3], values ahead:

pIC50 [1, 3]: 5.15
SMILES: COc1cccc(F)c1CNc1ncc(CCc2cccnc2C)c2nncn12 [HJM-047]

pIC50 [1, 3]: 5.94
SMILES: Fc1ccc2c(c1CNc1ncc(NCCN3CCOCC3)c3nncn13)CCO2 [HJM-023]

pIC50 [1, 3]: 5.96
SMILES: CN(CCN1CCOCC1)c1cnc(NCc2c(F)ccc3c2CCO3)n2cnnc12 [HJM-024]

pIC50 [1, 3]: 6.10
SMILES: CNCCOc1cnc(NCc2c(F)ccc3c2CCO3)n2cnnc12 [HJM-118]

pIC50 [1, 3]: 6.32
SMILES: Fc1ccc2c(c1CNc1nccc3nncn13)CCO2 [HJM-001]

pIC50 [1, 3]: 6.41
SMILES: CN1CC(Oc2cnc(NCc3c(F)ccc4c3CCO4)n3cnnc23)CC1=O (stereo not shown) [HJM-136]

pIC50 [1, 3]: 6.62
SMILES: Cc1ncccc1COc1cnc(NCc2c(F)ccc3c2CCO3)n2cnnc12 [HJM-021]

pIC50 [1, 3]: 6.73
SMILES: CN1CCOC(C(=O)Nc2cnc(NCc3c(F)ccc4c3CCO4)n3cnnc23)C1 (stereo not shown) [HJM-086]

pIC50 [1, 3]: 6.78
SMILES: Fc1ccc2c(c1CNc1ncc(C3CCCCC3)c3nncn13)CCO2 [HJM-051]

pIC50 [1, 3]: 6.85
SMILES: Fc1ccc2c(c1CNc1ncc(C3CCCCO3)c3nncn13)CCO2 (stereo not shown) [HJM-004, N-((5-fluoro-2,3-dihydrobenzofuran-4-yl)methyl)-8-(tetrahydro-2H-pyran-2-yl)-[1,2,4]triazolo[4,3-c]pyrimidin-5-amine]

pIC50 [1, 3]: 7.00
SMILES: COCCC(=O)Nc1cnc(NCc2c(F)ccc3c2CCO3)n2cnnc12 [HJM-034]

pIC50 [1, 3]: 7.01
SMILES: Fc1ccc2c(c1CNc1ncc(C3CC3)c3nncn13)CCO2 [HJM-002]

pIC50 [1, 3]: 7.05
SMILES: O=C(c1cnc(NCc2c(F)ccc3c2CCO3)n2cnnc12)N1CCOCC1 [HJM-027]
pIC50 (WSU-DLCL2 cells; [2]): 7.24

pIC50 [1, 3]: 7.08
SMILES: COCCOCC(=O)Nc1cnc(NCc2c(F)ccc3c2CCO3)n2cnnc12 [HJM-084]
pIC50 (WSU-DLCL2 cells; [2]): 7.06

pIC50 [1, 3]: 7.08
SMILES: CCC(=O)Nc1cnc(NCc2c(F)ccc3c2CCO3)n2cnnc12 [HJM-070]

pIC50 [1, 3]: 7.13
SMILES: CC(Oc1cnc(NCc2c(F)ccc3c2CCO3)n2cnnc12)c1cccnc1 (stereo not shown) [HJM-133]

pIC50 [1, 3]: 7.14
SMILES: COCCN(C)C(=O)c1cnc(NCc2c(F)ccc3c2CCO3)n2cnnc12 [HJM-152]
pIC50 (WSU-DLCL2 cells; [2]): 6.97

pIC50 [1, 3]: 7.17
SMILES: CN1CC(Oc2cnc(NCc3c(F)ccc4c3CCO4)n3cnnc23)C1 [HJM-114]
pIC50 (WSU-DLCL2 cells; [2]): 6.68

pIC50 [1, 3]: 7.19
SMILES: O=C(Nc1cnc(NCc2c(F)ccc3c2CCO3)n2cnnc12)C1CCCO1 (stereo not shown) [HJM-037]
pIC50 (WSU-DLCL2 cells; [2]): 6.94

pIC50 [1, 3]: 7.21
SMILES: COCCOc1cnc(NCc2c(F)ccc3c2CCO3)n2cnnc12 [HJM-137]
pIC50 (WSU-DLCL2 cells; [2]): 7.29

pIC50 [1, 3]: 7.24
SMILES: CC(Oc1cnc(NCc2c(F)ccc3c2CCO3)n2cnnc12)C1COC1 (stereo not shown) [HJM-106]
pIC50 (WSU-DLCL2 cells; [2]): 7.40

pIC50 [1, 3]: 7.27
SMILES: Fc1ccc2c(c1CNc1ncc(OC3COC3)c3nncn13)CCO2 [HJM-100]
pIC50 (WSU-DLCL2 cells; [2]): 7.26

pIC50 [1, 3]: 7.30
SMILES: CS(=O)(=O)N1CCC(c2cnc(NCc3c(F)ccc4c3CCO4)n3cnnc23)C1 (stereo not shown) [HJM-050]

pIC50 [1, 3]: 7.30
SMILES: COCCCOc1cnc(NCc2c(F)ccc3c2CCO3)n2cnnc12 [HJM-138]
pIC50 (WSU-DLCL2 cells; [2]): 7.36

pIC50 [1, 3]: 7.40
SMILES: Fc1ccc2c(c1CNc1ncc(OCC3CCCO3)c3nncn13)CCO2 (stereo not shown) [HJM-101]
pIC50 (WSU-DLCL2 cells; [2]): 7.28

pIC50 [1, 3]: 7.42
SMILES: [2H]C([2H])(Nc1ncc(OCC2CCOC2)c2nncn12)c1c(F)ccc2c1CCO2 (stereo not shown) [HJM-111]

pIC50 [1, 3]: 7.52
SMILES: CN(C)CCC(=O)Nc1cnc(NCc2c(F)ccc3c2CCO3)n2cnnc12 [HJM-082]
pIC50 (WSU-DLCL2 cells; [2]): 6.91

pIC50 [1, 3]: 7.59
SMILES: O=C(CCC(F)(F)F)Nc1cnc(NCc2c(F)ccc3c2CCO3)n2cnnc12 [HJM-033]
pIC50 (WSU-DLCL2 cells; [2]): 7.02
